From patent publication US20230296625A1, “CXCL14 AS PREDICTIVE BIOMARKER FOR ACUTE LIVER FAILURE AND DEATH” (University of Kansas, priority 2022, published 2023)
Like-named read-outs stand apart in the source and are kept apart here.

Legend:
[1] = tested on: human liver; conditions: in vivo
Description: A western blot analysis on the removed liver from a transplant recipient after acetaminophen overdose was carried out to determine whether circulating CXCL14 levels also reflected levels within the human liver. […] Therefore, the biological sample can be a blood sample (or plasma) or a liver sample.
Histology and Immunohistochemistry Formalin-fixed human and mouse tissue samples were embedded in paraffin and 5 µm sections were cut. Sections were stained with hematoxylin and eosin (H&E) for evaluation of the areas of necrosis. Additional liver sections were hydrated and went through antigen retrieval by boiling in sodium citrate buffer (pH 6.0). Liver sections were blocked in 3% BSA and serum then incubated with the primary antibodies overnight. Primary antibodies included anti-rabbit CD68 (Cell Signaling Technology, cat # 26042). Liver sections were washed and incubated in 3% hydrogen peroxide to block endogenous peroxidases. Biotinylated secondary antibody and DAB substrate were used to visualize the signals. Immunofluorescence staining was performed using 5 µm cryosections prepared from OCT-embedded tissue. Sections were blocked with 3% BSA and stained with anti-rabbit CXCL14 (Abcam, cat #264467). Fluorescence conjugated secondary antibodies Alexa Fluor 488 (Invitrogen, cat #A11034) goat anti rabbit was used.
Western blotting snap frozen tissue was homogenized in a CHAPs containing protein buffer and total protein was measured using the BCA assay (Pierce Scientific, Waltham, Massachusetts). Gel electrophoresis was carried out on protein lysates from individual samples, which were then transferred to a nitrocellulose blot.

[2] = tested on: acetaminophen overdose patients; conditions: human, in vivo
Description: A series of experiments were performed in order to evaluate the relevance of the findings from the mouse model (FIGS. 1A-1C), and whether the data can be relevant to humans. Plasma samples ([…]) were from acetaminophen overdose patients, where the plasma samples include 10 survivors with low injury, 30 survivors with high injury and 19 non-survivors. 10 healthy volunteer plasma samples were also obtained for comparison. Patients were categorized based on alanine amino transferase (ALT) level, with survivors with very mild ALT elevations at < 100 U/L categorized as low injury and survivors with peak ALT of 6200 U/L categorized as high injury.
Since the time from acetaminophen exposure until the patient going to the clinic for treatment is highly variable, the day of peak ALT as day 1 was set for all patients to streamline data.
We measured CXCL14 in plasma of acetaminophen-induced injury patients for three days. To make the data more reliable due to the complicated admission day and time of acetaminophen being taken, Day 1 is chosen as the day of peak ALT. We observed no CXCL14 increase in low injury patients (<100 pg/mL). […] In contrast, we found CXCL14 level is significant increased at day 1 (7000 pg/mL), but its level keep elevated by day 3 (8000 pg/mL) with a much higher level compared to the survivors (FIG. 2B). Next, we want to determine whether CXCL14 level in plasma can predict patient outcome.
All results were expressed as mean ± SE. Comparisons between multiple groups were performed with one-way ANOVA or, where appropriate, by two-way ANOVA, followed by a post hoc Bonferroni test. If the data were not normally distributed, we used the Kruskal-Wallis Test (nonparametric ANOVA) followed by Dunn’s Multiple Comparisons Test. P < 0.05 was considered significant. Receiver operating characteristic analysis curve was performed to determine optimal threshold values to discriminate between survivors and non-survivors.

[3] = tested on: fasted male C57BL/6J mice; conditions: mouse, in vivo
Description: The liver and plasma samples were collected between 6-72 hours after acetaminophen exposure.
ALT assay plasma alanine aminotransferase (ALT) activities were measured using an ALT test kit (Point Scientific, Inc, Canton, MI) per the manufacturer’s instruction.

CC(=O)Nc1ccc(O)cc1 [acetaminophen, N-acetyl-p-aminophenol]
ALT [1]: 1620.9 U/L
hepatic levels of CXCL14 (western blot) [1]: Elevation in hepatic levels of CXCL14 are evident
macrophage staining with CD68 [1]: significant increase in macrophage staining
necrosis by H&E staining [1]: significant areas of necrosis
staining for CXCL14 in liver sections [1]: significant elevations
ALT elevations [2]: < 100 U/L
bilirubin [2]: 12.5 mg/dL
prothrombin times [2]: significantly higher
plasma ALT levels ([3]; 300 mg/kg): return to baseline in both doses by 72 hours
plasma ALT levels ([3]; 600 mg/kg): return to baseline in both doses by 72 hours
